Patent US20250145665A1, “MACROCYCLIC PEPTIDES USEFUL AS MODULATORS OF TNF ALPHA” (Bristol-Myers Squibb Company, priority 2023, published 2025)
Starred links: 1 amine or outer side, 2 acyl side, 3 side chain; linkers in the order of their positions; H or OH if unused. Positions of bridges follow the written chain, without caps; N, C: chain ends. Non-standard residues stand in square brackets, D forms with d. Residues, ends and D or L forms follow the SMILES beside them. ξ: configuration not given here. X2 = O=C(O)c1ccc(CNC(=O)c2cccc(-c3ccc(C[C@H](N[*:1])C(=O)[*:2])cc3)c2)cc1; X5 = Cn1nc(C(=O)Nc2ccc(-c3ccc(C[C@H](N[*:1])C(=O)[*:2])cc3)cc2)c2ccccc21; Bip(4'-COOH) = N[C@@H](Cc1ccc(-c2ccc(C(=O)O)cc2)cc1)C(=O)O; Bip(4'-NHAc) = CC(=O)Nc1ccc(-c2ccc(C[C@H](N)C(=O)O)cc2)cc1; Ala(morpholin-4-yl) = N[C@@H](CN1CCOCC1)C(=O)O; X85 = N=C(N)c1cccc(C[C@H](N[*:1])C(=O)[*:2])c1; Bip = N[C@@H](Cc1ccc(-c2ccccc2)cc1)C(=O)O; Ala(2-furyl) = N[C@@H](Cc1ccco1)C(=O)O; Ala(4-THP) = N[C@@H](CC1CCOCC1)C(=O)O; 2Pal = N[C@@H](Cc1ccccn1)C(=O)O; 2Thi = N[C@@H](Cc1cccs1)C(=O)O; Cha = N[C@@H](CC1CCCCC1)C(=O)O; Chg = N[C@H](C(=O)O)C1CCCCC1; Tle = CC(C)(C)[C@H](N)C(=O)O; ξIle = CC[C@H](C)C(N)C(=O)O; Aze = O=C(O)[C@@H]1CCN1; ξV = CC(C)C(N)C(=O)O; Sar = CNCC(=O)O

Molecular target: TNFα (Homo sapiens, UniProt P01375)
Sequence (P01375 77-233 limits assumed): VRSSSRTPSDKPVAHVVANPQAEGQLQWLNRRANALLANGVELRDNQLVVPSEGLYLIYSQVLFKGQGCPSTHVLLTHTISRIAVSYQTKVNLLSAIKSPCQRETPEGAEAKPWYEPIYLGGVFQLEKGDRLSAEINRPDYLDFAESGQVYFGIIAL
Test: TNF-Induced HEK-Blue Assay
Type: cell-based
Settings: HEK-Blue-CD40L cells, NF-kB-driven secreted alkaline phosphatase reporter; TNFα 0.5 ng/ml; 18 h; read-out: TNF induced HEK-Blue assay IC50 value

CC(=O)Nc1ccc(-c2ccc(C[C@@H]3NC(=O)[C@H](Cc4ccc(-c5ccc(C(=O)O)cc5)cc4)NC(=O)[C@H](CN4CCOCC4)NC(=O)CSC[C@@H](C(=O)NCC(N)=O)NC(=O)[C@H](CC(C)C)NC(=O)[C@H](Cc4ccccc4)NC(=O)[C@H](C(C)C)NC(=O)[C@@H]4CCCN4C(=O)[C@H](C(C)C)NC(=O)[C@@H](CCCNC(=N)N)NC(=O)[C@H](CC(=O)O)NC(=O)[C@H](Cc4ccc(O)cc4)NC(=O)CN(C)C3=O)cc2)cc1 [Example 287] ({CH2CO}-[Ala(morpholin-4-yl)][Bip(4'-COOH)][Bip(4'-NHAc)][Sar]YD[dR]VPVFLCG-NH2; thioether N-13)
IC50: < 50 nM

CC(=O)Nc1ccc(-c2ccc(C[C@@H]3NC(=O)[C@H](Cc4ccc(-c5ccccc5)cc4)NC(=O)[C@H](CC4CCCCC4)NC(=O)CSC[C@@H](C(=O)NCC(N)=O)NC(=O)[C@H](CC(C)C)NC(=O)[C@H](Cc4ccco4)NC(=O)[C@H](C(C)C)NC(=O)[C@@H]4CCCN4C(=O)[C@H](C(C)C)NC(=O)[C@@H](CCCNC(=N)N)NC(=O)[C@H](CC(=O)O)NC(=O)[C@@H]4CCCN4C(=O)CN(C)C3=O)cc2)cc1 [Example 288] ({CH2CO}-[Cha][Bip][Bip(4'-NHAc)][Sar]PD[dR]VPV[Ala(2-furyl)]LCG-NH2; thioether N-13)
IC50: 200 to 2000 nM

CC(=O)Nc1ccc(-c2ccc(C[C@@H]3NC(=O)[C@H](Cc4ccc(-c5ccccc5)cc4)NC(=O)[C@H](CC4CCCCC4)NC(=O)CSC[C@@H](C(=O)NCC(N)=O)NC(=O)[C@H](CC(C)C)NC(=O)[C@H](Cc4cccs4)NC(=O)[C@H](C(C)C)NC(=O)[C@@H]4CCCN4C(=O)[C@H](C(C)C)NC(=O)[C@@H](CCCNC(=N)N)NC(=O)[C@H](CC(=O)O)NC(=O)[C@@H]4CCCN4C(=O)CN(C)C3=O)cc2)cc1 [Example 289] ({CH2CO}-[Cha][Bip][Bip(4'-NHAc)][Sar]PD[dR]VPV[2Thi]LCG-NH2; thioether N-13)
IC50: 50 to 200 nM

CC[C@H](C)C1NC(=O)[C@@H]2CCCN2C(=O)[C@H]([C@@H](C)CC)NC(=O)[C@@H](CCCNC(=N)N)NC(=O)[C@H](CC(=O)O)NC(=O)[C@H](Cc2ccccn2)NC(=O)CN(C)C(=O)[C@H](Cc2ccc(-c3ccc(NC(C)=O)cc3)cc2)NC(=O)[C@H](Cc2ccc(-c3ccccc3)cc2)NC(=O)[C@H](CC2CCCCC2)NC(=O)CSC[C@@H](C(=O)NCC(N)=O)NC(=O)[C@H](CC(C)C)NC(=O)[C@H](CCCNC(=N)N)NC1=O (stereo partly shown) [Example 290] ({CH2CO}-[Cha][Bip][Bip(4'-NHAc)][Sar][2Pal]D[dR]IP[ξIle]RLCG-NH2; thioether N-13)
IC50: 50 to 200 nM

CC[C@H](C)C1NC(=O)[C@@H]2CCCN2C(=O)[C@H]([C@@H](C)CC)NC(=O)[C@@H](CCCNC(=N)N)NC(=O)[C@H](CC(=O)O)NC(=O)[C@H](Cc2ccccn2)NC(=O)CN(C)C(=O)[C@H](Cc2ccc(-c3ccc(NC(C)=O)cc3)cc2)NC(=O)[C@H](Cc2ccc(-c3ccc(C(=O)O)cc3)cc2)NC(=O)[C@H](CC2CCCCC2)NC(=O)CSC[C@@H](C(=O)NCC(N)=O)NC(=O)[C@H](CC(C)C)NC(=O)[C@H](CCCNC(=N)N)NC1=O (stereo partly shown) [Example 291] ({CH2CO}-[Cha][Bip(4'-COOH)][Bip(4'-NHAc)][Sar][2Pal]D[dR]IP[ξIle]RLCG-NH2; thioether N-13)
IC50: < 50 nM

CC[C@H](C)[C@@H]1NC(=O)[C@@H]2CCCN2C(=O)[C@H]([C@@H](C)CC)NC(=O)[C@@H](CCCNC(=N)N)NC(=O)[C@H](CC(=O)O)NC(=O)[C@H](Cc2cnc[nH]2)NC(=O)CN(C)C(=O)[C@H](Cc2ccc(-c3ccc(NC(C)=O)cc3)cc2)NC(=O)[C@H](Cc2ccc(-c3ccc(C(=O)O)cc3)cc2)NC(=O)[C@H](CN2CCOCC2)NC(=O)CSC[C@@H](C(=O)NCC(N)=O)NC(=O)[C@H](CC(C)C)NC(=O)[C@H](Cc2cnc[nH]2)NC1=O [Example 292] ({CH2CO}-[Ala(morpholin-4-yl)][Bip(4'-COOH)][Bip(4'-NHAc)][Sar]HD[dR]IPIHLCG-NH2; thioether N-13)
IC50: < 50 nM

CC[C@H](C)[C@@H]1NC(=O)[C@@H]2CCCN2C(=O)[C@H]([C@@H](C)CC)NC(=O)[C@@H](CCCNC(=N)N)NC(=O)[C@H](CC(=O)O)NC(=O)[C@H](Cc2ccc(O)cc2)NC(=O)CN(C)C(=O)[C@H](Cc2ccc(-c3ccc(NC(C)=O)cc3)cc2)NC(=O)[C@H](Cc2ccc(-c3ccccc3)cc2)NC(=O)[C@H](CN2CCOCC2)NC(=O)CSC[C@@H](C(=O)NCC(N)=O)NC(=O)[C@H](CC(C)C)NC(=O)[C@H](Cc2cccs2)NC1=O [Example 293] ({CH2CO}-[Ala(morpholin-4-yl)][Bip][Bip(4'-NHAc)][Sar]YD[dR]IPI[2Thi]LCG-NH2; thioether N-13)
IC50: < 50 nM

CC[C@H](C)[C@@H]1NC(=O)[C@@H]2CCN2C(=O)[C@H]([C@@H](C)CC)NC(=O)[C@@H](CCCNC(=N)N)NC(=O)[C@H](CC(=O)O)NC(=O)[C@H](Cc2ccc(O)cc2)NC(=O)CN(C)C(=O)[C@H](Cc2ccc(-c3ccc(NC(C)=O)cc3)cc2)NC(=O)[C@H](Cc2ccc(-c3ccccc3)cc2)NC(=O)[C@H](C(C)(C)C)NC(=O)CSC[C@@H](C(=O)NCC(N)=O)NC(=O)[C@H](CC(C)C)NC(=O)[C@H](Cc2ccc(O)cc2)NC1=O [Example 294] ({CH2CO}-[Tle][Bip][Bip(4'-NHAc)][Sar]YD[dR]I[Aze]IYLCG-NH2; thioether N-13)
IC50: < 50 nM

CC[C@H](C)[C@@H]1NC(=O)[C@@H]2CCCN2C(=O)[C@H]([C@@H](C)CC)NC(=O)[C@@H](CCCNC(=N)N)NC(=O)[C@H](CC(=O)O)NC(=O)[C@H](Cc2ccccc2)NC(=O)CN(C)C(=O)[C@H](Cc2ccc(-c3ccc(NC(C)=O)cc3)cc2)NC(=O)[C@H](Cc2ccc(-c3ccc(C(=O)O)cc3)cc2)NC(=O)[C@H](C(C)(C)C)NC(=O)CSC[C@@H](C(=O)NCC(N)=O)NC(=O)[C@H](CC(C)C)NC(=O)[C@H](Cc2cnc[nH]2)NC1=O [Example 295] ({CH2CO}-[Tle][Bip(4'-COOH)][Bip(4'-NHAc)][Sar]FD[dR]IPIHLCG-NH2; thioether N-13)
IC50: < 50 nM

CC[C@H](C)[C@@H]1NC(=O)[C@@H]2CCCN2C(=O)[C@H]([C@@H](C)CC)NC(=O)[C@@H](CCCNC(=N)N)NC(=O)[C@H](CC(=O)O)NC(=O)[C@H](Cc2ccc(O)cc2)NC(=O)CN(C)C(=O)[C@H](Cc2ccc(-c3ccc(NC(C)=O)cc3)cc2)NC(=O)[C@H](Cc2ccc(-c3ccccc3)cc2)NC(=O)[C@H](C(C)(C)C)NC(=O)CSC[C@@H](C(=O)NCC(N)=O)NC(=O)[C@H](CC(C)C)NC(=O)[C@H](Cc2ccccc2)NC1=O [Example 296] ({CH2CO}-[Tle][Bip][Bip(4'-NHAc)][Sar]YD[dR]IPIFLCG-NH2; thioether N-13)
IC50: < 50 nM

CC[C@H](C)[C@@H]1NC(=O)[C@@H]2CCCN2C(=O)[C@H]([C@@H](C)CC)NC(=O)[C@@H](CCCNC(=N)N)NC(=O)[C@H](CC(=O)O)NC(=O)[C@H](Cc2ccccn2)NC(=O)CN(C)C(=O)[C@H](Cc2ccc(-c3ccc(NC(C)=O)cc3)cc2)NC(=O)[C@H](Cc2ccc(-c3ccccc3)cc2)NC(=O)[C@H](C(C)(C)C)NC(=O)CSC[C@@H](C(=O)NCC(N)=O)NC(=O)[C@H](CC(C)C)NC(=O)[C@H](Cc2cccc(C(=N)N)c2)NC1=O [Example 297] ({CH2CO}-[Tle][Bip][Bip(4'-NHAc)][Sar][2Pal]D[dR]IPI[X85]LCG-NH2; thioether N-13)
IC50: < 50 nM

CC[C@H](C)[C@@H]1NC(=O)[C@@H]2CCCN2C(=O)[C@H]([C@@H](C)CC)NC(=O)[C@@H](CCCNC(=N)N)NC(=O)[C@H](CC(=O)O)NC(=O)[C@H](Cc2ccco2)NC(=O)CN(C)C(=O)[C@H](Cc2ccc(-c3ccc(NC(C)=O)cc3)cc2)NC(=O)[C@H](Cc2ccc(-c3ccccc3)cc2)NC(=O)[C@H](C(C)(C)C)NC(=O)CSC[C@@H](C(=O)NCC(N)=O)NC(=O)[C@H](CC(C)C)NC(=O)[C@H](Cc2ccc(O)cc2)NC1=O [Example 298] ({CH2CO}-[Tle][Bip][Bip(4'-NHAc)][Sar][Ala(2-furyl)]D[dR]IPIYLCG-NH2; thioether N-13)
IC50: 50 to 200 nM

CC[C@H](C)[C@@H]1NC(=O)[C@@H]2CCCN2C(=O)[C@H]([C@@H](C)CC)NC(=O)[C@@H](CCCNC(=N)N)NC(=O)[C@H](CC(=O)O)NC(=O)[C@@H]2CCCN2C(=O)CN(C)C(=O)[C@H](Cc2ccc(-c3ccc(NC(C)=O)cc3)cc2)NC(=O)[C@H](Cc2ccc(-c3ccc(C(=O)O)cc3)cc2)NC(=O)[C@H](C(C)(C)C)NC(=O)CSC[C@@H](C(=O)NCC(N)=O)NC(=O)[C@H](CC(C)C)NC(=O)[C@H](Cc2ccc(O)cc2)NC1=O [Example 300] ({CH2CO}-[Tle][Bip(4'-COOH)][Bip(4'-NHAc)][Sar]PD[dR]IPIYLCG-NH2; thioether N-13)
IC50: 50 to 200 nM

CC(=O)Nc1ccc(-c2ccc(C[C@@H]3NC(=O)[C@H](Cc4ccc(-c5ccccc5)cc4)NC(=O)[C@H](CC4CCCCC4)NC(=O)CSC[C@@H](C(=O)NCC(N)=O)NC(=O)[C@H](CC(C)C)NC(=O)[C@H](Cc4cnc[nH]4)NC(=O)[C@H](C4CCCCC4)NC(=O)[C@@H]4CCCN4C(=O)[C@H](CC(N)=O)NC(=O)[C@@H](CCCNC(=N)N)NC(=O)[C@H](CC(=O)O)NC(=O)[C@H](Cc4cnc[nH]4)NC(=O)CN(C)C3=O)cc2)cc1 [Example 301] ({CH2CO}-[Cha][Bip][Bip(4'-NHAc)][Sar]HD[dR]NP[Chg]HLCG-NH2; thioether N-13)
IC50: 50 to 200 nM

CC(C)C[C@@H]1NC(=O)[C@H](CCCNC(=N)N)NC(=O)C(C(C)C)NC(=O)[C@@H]2CCCN2C(=O)[C@H](C(C)C)NC(=O)[C@@H](CCCNC(=N)N)NC(=O)[C@H](CC(=O)O)NC(=O)[C@@H]2CCCN2C(=O)CN(C)C(=O)[C@H](Cc2ccc(-c3cccc(C(=O)NCc4ccc(C(=O)O)cc4)c3)cc2)NC(=O)[C@H](Cc2ccc(-c3ccccc3)cc2)NC(=O)[C@H](CC2CCOCC2)NC(=O)CSC[C@@H](C(=O)NCC(N)=O)NC1=O (stereo partly shown) [Example 303] ({CH2CO}-[Ala(4-THP)][Bip][X2][Sar]PD[dR]VP[ξV]RLCG-NH2; thioether N-13)
IC50: 200 to 2000 nM

CC(C)C[C@@H]1NC(=O)[C@H](CCCNC(=N)N)NC(=O)[C@H](C(C)C)NC(=O)[C@@H]2CCCN2C(=O)[C@H](C(C)C)NC(=O)[C@@H](CCCNC(=N)N)NC(=O)[C@H](CC(=O)O)NC(=O)[C@@H]2CCCN2C(=O)CN(C)C(=O)[C@H](Cc2ccc(-c3ccc(NC(=O)c4nn(C)c5ccccc45)cc3)cc2)NC(=O)[C@H](Cc2ccc(-c3ccccc3)cc2)NC(=O)[C@H](CC2CCOCC2)NC(=O)CSC[C@@H](C(=O)NCC(N)=O)NC1=O [Example 304] ({CH2CO}-[Ala(4-THP)][Bip][X5][Sar]PD[dR]VPVRLCG-NH2; thioether N-13)
IC50: < 50 nM
